Laboratory results as given in patent US11730712B2, “Functionalized long-chain hydrocarbon mono- and di-carboxylic acids and derivatives thereof, and their use for the prevention or treatment of disease” (ESPERVITA THERAPEUTICS, INC., priority 2021, dated 2023).

Tested on: liver fibrosis gene panel (770 genes)
Assay: Nanostring nCounter Fibrosis panel gene expression in liver of DEN-injected mice
Format: in vivo, mouse
Procedure: Nanostring Analysis. RNA was extracted from paired liver and tumor tissue from vehicle, Compound I-1 (100 mg/kg) and Compound I-32 (100 mg/kg) treated mice using an RNeasy kit (Qiagen, Calif., USA) as per manufacturer's protocol. All RNA samples passed the BioAnalyzer quality control test. The expression of target genes in liver and tumor were analyzed using the nCounter Fibrosis and Cancer Panel (NanoString Technologies, Inc., WA, USA), respectively according to manufacturer's protocol at the McMaster Genomics Facility. Technical and biological normalization against global geometric mean was performed in nSolver 4.0 software (NanoString Technologies). Technical normalization was performed in the nSolver software (version 4.0.70) by normalizing sample target raw counts to the geometric mean of positive control spike-ins. Biological normalization was performed by normalizing sample target raw counts to the geometric mean of selected housekeeping genes (Ppia, Nubp1, Nol7, Armh3, Rplp0, Cnot10, Pgk1, and Acad9). Pathway scores were calculated as the first principal component of the normalized expression values for all genes in each pathway and samples were compiled according to experimental groups to determine average pathway scores. Statistical significance was calculated between experimental groups using multiple t-tests and p-values were corrected for multiple comparisons using Benjamin-Hochberg false discovery rate.
Molecular analysis. To identify the pathways modulated in the liver and tumor tissue, nanostring analysis of fibrosis and cancer, pathways, respectively were completed in an n=8 mice treated with vehicle or Compound I-32 or Compound I-1 at 100 mg/kg.

CC(C)(CCCCc1cccc(CCCCC(C)(C)C(=O)O)c1)C(=O)O [Compound I-32, 6-[3-(5-carboxy-5-methylhexyl)-phenyl]-2,2-dimethylhexanoic acid]
number of genes downregulated (100 mg/kg, 4 weeks): 159
number of genes upregulated (100 mg/kg, 4 weeks): 71
number of genes with altered expression relative to vehicle controls (770 genes measured) (100 mg/kg, 4 weeks): 231
Adh1 Log2FC (NM_007409, 100 mg/kg, vs vehicle): 0.536
Aldh3a2 Log2FC (NM_007437, 100 mg/kg, vs vehicle): 0.869
Prdx6 Log2FC (NM_007453, 100 mg/kg, vs vehicle): −0.595
Apoa4 Log2FC (NM_007468, 100 mg/kg, vs vehicle): −3.4
Atp6v1e1 Log2FC (NM_007510, 100 mg/kg, vs vehicle): 0.153
Casp7 Log2FC (NM_007611, 100 mg/kg, vs vehicle): −0.31
Cd36 Log2FC (NM_007643, 100 mg/kg, vs vehicle): 1.02
Cdh2 Log2FC (NM_007664, 100 mg/kg, vs vehicle): −0.165
Cebpa Log2FC (NM_007678, 100 mg/kg, vs vehicle): −0.413
Cfi Log2FC (NM_007686, 100 mg/kg, vs vehicle): −0.395
Chil1 Log2FC (NM_007695, 100 mg/kg, vs vehicle): 2.58
Col1a2 Log2FC (NM_007743, 100 mg/kg, vs vehicle): −0.588
Cox6a1 Log2FC (NM_007748, 100 mg/kg, vs vehicle): 0.336
Cox7c Log2FC (NM_007749, 100 mg/kg, vs vehicle): 0.459
Crp Log2FC (NM_007768, 100 mg/kg, vs vehicle): −0.857
Ctsb Log2FC (NM_007798, 100 mg/kg, vs vehicle): −0.216
Cybb Log2FC (NM_007807, 100 mg/kg, vs vehicle): −0.644
Cyp2c29 Log2FC (NM_007815, 100 mg/kg, vs vehicle): −0.646
Cyp7a1 Log2FC (NM_007824, 100 mg/kg, vs vehicle): −1.38
Diaph1 Log2FC (NM_007858, 100 mg/kg, vs vehicle): −0.265
Ephx2 Log2FC (NM_007940, 100 mg/kg, vs vehicle): 0.562
F5 Log2FC (NM_007976, 100 mg/kg, vs vehicle): −0.29
Fas Log2FC (NM_007987, 100 mg/kg, vs vehicle): 0.226
Fasn Log2FC (NM_007988, 100 mg/kg, vs vehicle): 1.09
Slc37a4 Log2FC (NM_008063, 100 mg/kg, vs vehicle): −0.843
Gas1 Log2FC (NM_008086, 100 mg/kg, vs vehicle): −0.696
Gpc4 Log2FC (NM_008150, 100 mg/kg, vs vehicle): −0.381
Hadh Log2FC (NM_008212, 100 mg/kg, vs vehicle): 0.258
Hsd11b1 Log2FC (NM_008288, 100 mg/kg, vs vehicle): −1.23
Hsd17b4 Log2FC (NM_008292, 100 mg/kg, vs vehicle): 0.446
Irf8 Log2FC (NM_008320, 100 mg/kg, vs vehicle): −0.357
Il10ra Log2FC (NM_008348, 100 mg/kg, vs vehicle): −0.578
Itch Log2FC (NM_008395, 100 mg/kg, vs vehicle): −0.295
Kikb1 Log2FC (NM_008455, 100 mg/kg, vs vehicle): −0.217
Lpl Log2FC (NM_008509, 100 mg/kg, vs vehicle): 1.8
Lrp1 Log2FC (NM_008512, 100 mg/kg, vs vehicle): −0.376
Cd180 Log2FC (NM_008533, 100 mg/kg, vs vehicle): −0.606
Masp1 Log2FC (NM_008555, 100 mg/kg, vs vehicle): −0.26
Anapc1 Log2FC (NM_008569, 100 mg/kg, vs vehicle): −0.316
Mmp12 Log2FC (NM_008605, 100 mg/kg, vs vehicle): −2.05
Mmp14 Log2FC (NM_008608, 100 mg/kg, vs vehicle): −0.465
Nedd8 Log2FC (NM_008683, 100 mg/kg, vs vehicle): 0.0875
Pcx Log2FC (NM_008797, 100 mg/kg, vs vehicle): −0.521
Plcb3 Log2FC (NM_008874, 100 mg/kg, vs vehicle): −0.297
Plg Log2FC (NM_008877, 100 mg/kg, vs vehicle): −0.296
Ppm1a Log2FC (NM_008910, 100 mg/kg, vs vehicle): 0.136
Map2k1 Log2FC (NM_008927, 100 mg/kg, vs vehicle): −0.177
Saa1/2 Log2FC (NM_009117, 100 mg/kg, vs vehicle): −1.96
Scd1 Log2FC (NM_009127, 100 mg/kg, vs vehicle): 0.602
Scd2 Log2FC (NM_009128, 100 mg/kg, vs vehicle): 0.949
Sorbs1 Log2FC (NM_009166, 100 mg/kg, vs vehicle): −0.302
Sem1 Log2FC (NM_009169, 100 mg/kg, vs vehicle): 0.298
Ssr4 Log2FC (NM_009279, 100 mg/kg, vs vehicle): −0.228
Tgfbr1 Log2FC (NM_009370, 100 mg/kg, vs vehicle): −0.309
Traf2 Log2FC (NM_009422, 100 mg/kg, vs vehicle): −0.346
Tnfsf10 Log2FC (NM_009425, 100 mg/kg, vs vehicle): −0.692
Axl Log2FC (NM_009465, 100 mg/kg, vs vehicle): −0.418
Ap1g1 Log2FC (NM_009677, 100 mg/kg, vs vehicle): −0.189
Apoa1 Log2FC (NM_009692, 100 mg/kg, vs vehicle): −0.481
Apob Log2FC (NM_009693, 100 mg/kg, vs vehicle): −0.227
Bcl2l1 Log2FC (NM_009743, 100 mg/kg, vs vehicle): −0.248
Serping1 Log2FC (NM_009776, 100 mg/kg, vs vehicle): −0.66
C3ar1 Log2FC (NM_009779, 100 mg/kg, vs vehicle): −0.825
Calm1 Log2FC (NM_009790, 100 mg/kg, vs vehicle): −0.327
Casp3 Log2FC (NM_009810, 100 mg/kg, vs vehicle): −0.237
Serpinh1 Log2FC (NM_009825, 100 mg/kg, vs vehicle): −0.531
Cdk4 Log2FC (NM_009870, 100 mg/kg, vs vehicle): 0.181
Cfh Log2FC (NM_009888, 100 mg/kg, vs vehicle): −1.41
Col3a1 Log2FC (NM_009930, 100 mg/kg, vs vehicle): −0.679
Csnk2b Log2FC (NM_009975, 100 mg/kg, vs vehicle): 0.0913
Ctsd Log2FC (NM_009983, 100 mg/kg, vs vehicle): 0.331
Cyp4a10/31/32 Log2FC (NM_010011, 100 mg/kg, vs vehicle): 2.88
Fcer1g Log2FC (NM_010185, 100 mg/kg, vs vehicle): −0.427
Fn1 Log2FC (NM_010233, 100 mg/kg, vs vehicle): −0.584
Got2 Log2FC (NM_010325, 100 mg/kg, vs vehicle): 0.156
H2-Aa Log2FC (NM_010378, 100 mg/kg, vs vehicle): −0.4
H2-D1 Log2FC (NM_010380, 100 mg/kg, vs vehicle): −0.175
H2-T23 Log2FC (NM_010398, 100 mg/kg, vs vehicle): −0.224
Hck Log2FC (NM_010407, 100 mg/kg, vs vehicle): −0.667
Hif1a Log2FC (NM_010431, 100 mg/kg, vs vehicle): 0.283
Hmox1 Log2FC (NM_010442, 100 mg/kg, vs vehicle): −0.484
Hsp90aa1 Log2FC (NM_010480, 100 mg/kg, vs vehicle): 0.361
Icam1 Log2FC (NM_010493, 100 mg/kg, vs vehicle): −0.382
Ikbkb Log2FC (NM_010546, 100 mg/kg, vs vehicle): −0.526
II6st Log2FC (NM_010560, 100 mg/kg, vs vehicle): −0.296
Ilk Log2FC (NM_010562, 100 mg/kg, vs vehicle): −0.109
Itgb1 Log2FC (NM_010578, 100 mg/kg, vs vehicle): 0.143
Fabp5 Log2FC (NM_010634, 100 mg/kg, vs vehicle): 1.44
Lepr Log2FC (NM_010704, 100 mg/kg, vs vehicle): 0.604
Psmb8 Log2FC (NM_010724, 100 mg/kg, vs vehicle): −0.801
Lyn Log2FC (NM_010747, 100 mg/kg, vs vehicle): −0.295
Marco Log2FC (NM_010766, 100 mg/kg, vs vehicle): −1.54
P4hb Log2FC (NM_011032, 100 mg/kg, vs vehicle): −0.765
Pck1 Log2FC (NM_011044, 100 mg/kg, vs vehicle): −1.99
Pitp Log2FC (NM_011125, 100 mg/kg, vs vehicle): 1.37
Pparg Log2FC (NM_011146, 100 mg/kg, vs vehicle): −0.592
Prkdc Log2FC (NM_011159, 100 mg/kg, vs vehicle): −0.525
Pros1 Log2FC (NM_011173, 100 mg/kg, vs vehicle): −0.208
Lgmn Log2FC (NM_011175, 100 mg/kg, vs vehicle): −0.601
Ptprc Log2FC (NM_011210, 100 mg/kg, vs vehicle): −0.47
S100a4 Log2FC (NM_011311, 100 mg/kg, vs vehicle): −0.79
Serpinf1 Log2FC (NM_011340, 100 mg/kg, vs vehicle): −0.208
Sod1 Log2FC (NM_011434, 100 mg/kg, vs vehicle): 0.284
Srebf1 Log2FC (NM_011480, 100 mg/kg, vs vehicle): −0.634
Thbs2 Log2FC (NM_011581, 100 mg/kg, vs vehicle): −1.01
Timp2 Log2FC (NM_011594, 100 mg/kg, vs vehicle): −0.451
Tjp2 Log2FC (NM_011597, 100 mg/kg, vs vehicle): 0.199
Tln1 Log2FC (NM_011602, 100 mg/kg, vs vehicle): −0.355
Vegfb Log2FC (NM_011697, 100 mg/kg, vs vehicle): 0.521
Adh4 Log2FC (NM_011996, 100 mg/kg, vs vehicle): −0.855
Bcap31 Log2FC (NM_012060, 100 mg/kg, vs vehicle): −0.145
C9 Log2FC (NM_013485, 100 mg/kg, vs vehicle): −1.25
